Among the data in patent US20180207105A1, “METHOD FOR MANUFACTURING A THERAPEUTIC AGENT FOR USE IN THE TREATMENT OF INFECTIONS” (AGA NANOTECH LTD, priority 2014, published 2018) are pH of solution values, retold here.

The series in a line: pH of solutions of the active ingredients alone dissolved in ultrapure water. The class given is physicochemical.
[1] abbreviates: 17.5 mg/ml (1.75 wt %) in ultrapure water.
The mark [2] stands for this setting: 35 mg/ml (3.5 wt %) in ultrapure water.
The mark [3] stands for this setting: 70 mg/ml (7 wt %) in ultrapure water.
The mark [4] stands for this setting: 140 mg/ml (14 wt %) in ultrapure water.
[5] abbreviates: 280 mg/ml (28 wt %) in ultrapure water.

Regarding `NC(N)=O.OO` [Urea Hydrogen Peroxide, urea hydrogen peroxide], the pH of solution runs as follows: under setting [1], 7.90; under setting [2], 6.92; under setting [3], 6.9; under setting [4], 6.38; under setting [5], 4.97.
With `O=C([O-])[O-].O=C([O-])[O-].OO.OO.OO.[Na+].[Na+].[Na+].[Na+]` [Sodium Percarbonate, Sodium percarbonate], the pH of solution is, setting by setting: under setting [1], 10.83; under setting [2], 10.89; under setting [3], 10.87; under setting [4], 10.83; under setting [5], 10.74.
